According to patent US20180214463A1, “USE OF PHYTIC ACID OR THE SALTS THEREOF, ALONE OR COMBINED WITH B6 VITAMERS, FOR PREVENTING THE FORMATION OF ADVANCED GLYCATION END-PRODUCT” (UNIVERSITAT DE LES ILLES BALEARS, priority 2015, published 2018):

Key:
[1] = system: diabetic patients; test: Clinical trial of phytate (phytin) in diabetic patients: plasma HbA1c and AGEs, urinary phytate; type: in vivo, human
[2] = system: formation of AGEs; test: In vitro formation of AGEs (ribose, arginine, lysine, Fe3+; fluorescence at 7 days); type: biochemical; conditions: 37° C., vs control without inhibitors
Procedure: In an in vitro study, the inhibiting effect of phytate alone or in combination with pyridoxamine on the formation of AGEs was compared (see FIG. 2). […] In these studies, the formation of AGEs was induced by incubating a reaction mixture containing ribose (200 mM) (taken as the model reducing sugar), 1 mM arginine, 2 mM lysine (as glycation targets), and 2 μM Fe^3 (as a glycation catalyzer) with various concentrations of phytate and pyridoxamine alone or in combination at 37° C. for 7 days (in a 0.2 M phosphate buffer). The quantity of AGEs present at 7 days was determined by fluorescence.

increase in the urinary excretion of phytate ([1]; 1,140 mg phytate (as phytin) daily for 3 months, p=0.026) [%]	Structure (SMILES)	decrease in plasma AGEs ([1]; 1,140 mg phytate (as phytin) daily for 3 months, 33 diabetic patients, p<0.001) [%]	decrease in plasma glycated hemoglobin (HbA1c) ([1]; 1,140 mg phytate (as phytin) daily for 3 months, 33 diabetic patients, p=0.017) [%]	plasma levels of HbA1c and AGEs after withdrawal ([1]; three months without phytate, after three months of consuming it)	inhibition of the formation of AGEs ([2]; 1 μM inhibitor alone) [%]	inhibition of the formation of AGEs ([2]; 2 μM inhibitor alone) [%]	inhibition of the formation of AGEs ([2]; 2.5 μM inhibitor alone) [%]
33.6	O=P(O)(O)O[C@H]1[C@H](OP(=O)(O)O)[C@@H](OP(=O)(O)O)[C@H](OP(=O)(O)O)[C@@H](OP(=O)(O)O)[C@H]1OP(=O)(O)O [phytate, myo-inositol-hexaphosphate]	~25.1	~3.9	returning to levels similar to the baselines	12.7	19.9	
	Cc1ncc(CO)c(CN)c1O [pyridoxamine]				17.5		28.2
